Measured values: patent publication US6767738B1, “Method of isolating adult mammalian CNS-derived progenitor stem cells using density gradient centrifugation” (The Salk Institute for Biological Studies, priority 1999, dated 2004)

Experiments:
clonal stem cells (AP14) = test: RT-PCR analysis of p21, NeuroD, trk and p75NGFR mRNA in stem cell cultures; format: cell-based, rat
Experimental: Cell Culture. For proliferating conditions, clonal stem cells (AP14) were cultured in Dulbecco's Modified Eagles Medium/Ham's F12 (DMEM/F12, 1:1) containing N2 supplement (Gibco BRL, Gaithersburg, Md.) and 20 ng/ml rhFGF-2 (provided by A. Baird, Prizm Pharmaceuticals Inc., La Jolla, Calif.). Culture dishes (Becton Dickinsin Labware, Lincoln Park, N.J.) were coated with polyomithine and mouse laminin as previously described by Ray, et al., Proliferation, differentiation and long-term culture of primary hippocampal neurons, Proc Natl Acad Sci USA 90:3602-3606 (1993). For differentiation experiments, cells were plated into polyornithine/laminin coated glass chamber slides (Nunc, Naperville, Ill.) at a density of 2.5—103 per cm2. The cells were incubated for 24 hrs in normal N2 medium containing 20 ng/ml FGF-2, and then the medium was replaced by N2 medium containing 0.5% […] (FBS) and 0.01% DMSO (control solvent) or […] all-trans retinoic acid (Sigma, St. Louis, Mo.). For further differentiation, the medium was replaced by N2 medium containing 0.5% FBS and one of the following: sterile water (control solvent), mouse 2.55 NGF (50 ng/ml, Boehringer Mannheim, Indianapolis, Ind.), rhBDNF (20 ng/ml, Alomone Labs, Jerusalem, Israel), rhNT-3 (40 ng/ml, Genentech, South San Francisco, Calif.). The medium was replaced every two days. For inhibition of the tyrosine kinase activity of the Trk receptors, K-252a (100 nM, Calbiochem, San Diego, Calif.) was added to the medium.
Reverse Transcription-PCR Analysis. Total RNA from stem cells was isolated using RNeasy Total RNA Kits (Qiagen, Chatsworth, Calif.) according to manufacturer's instructions. Fifty nanograms of total RNA was reverse transcribed using avian myeloblastosis virus reverse transcriptase (Promega, Madison, Wis.) with random hexamers ([…]) as primers in a […] reaction mixture. For PCR amplification, two sets of specific oligonucleotide pairs ([…]) were used: one directed to the transcript of interest, and one for a constitutively expressed transcript, either ribosomal protein L27 or L27a. Reactions were performed in a […] reaction mixture containing 10 mM Tris-Cl (pH 8.4), 50 mm KCl, 1.5 mM MgC12, […] each of the four dNTPs, 2 mCi of [a-32P]dCTP and 5 units of Taq polymerase (Promega) using a thermal cycler (Perkin-Elmer, Foster City, Calif.) with a regimen of 1 min at 94° C., 2 min at 60° C. (55° C. for trk receptors) and 2 min at 72° C. for 23 cycles Fifty microliters of each reaction was analyzed by electrophoresis on 8% polyacrylamide gels followed by autoradiography. […] Under these conditions, the L27 amplification product was directly proportional to the amount of input RNA, up to 50 ng total RNA. Oligonucleotide primers used are as follows: […]

[1] = test system: low-buoyancy cortical cells; test: Acquisition of neuron competence by low-buoyancy cortical cells in culture; format: cell-based, rat
Description: Tissue dissection: Three areas were dissected from adult rat brains as follows. Rats (170-190 g Fisher 344 males or females, Harlan) were deeply anesthetized with a mixture of ketamine, xylazine, and acepromazine. Animals were decapitated and whole brains removed. First, ˜1.5 mm of each optic nerve were harvested rostral to, but not including, the optic chiasma. The brain was then bisected longitudinally and each hippocampal lobe separated from the overlaying cortical white matter using the natural separation line along the alveus hippocampus. The white matter of the fimbria and subiculum was removed as much as possible. Some white matter remained. Finally, a 1.5 mm wide cortical ribbon containing parietal and frontal segments was dissected longitudinally, proximal to the central fissure. The pial and callosal surfaces were trimmed from each cortical ribbon to remove a majority of the meninges and white matter.
Tissue dissociation and fractionation: Tissues were finely minced and digested in a solution of papain (2.5 U/ml, Worthington), DNAse (250 U/ml, Worthington), and neutral protease (1 U/ml Dispase, Boehringer) dissolved in Hanks balanced salt solution, as described in Palmer T D, Ray J, Gage F H (1995), FGF-2-Responsive Neuronal Progenitors Reside in Proliferative and Quiescent Regions of the Adult Rodent Brain. Mol Cell Neurosci 6:474-486; and Gage F H, Coates P W, Palmer T D, Kuhn H G, Fisher L J, Suhonen J O, Peterson D A, Suhr S T, Ray J (1995), Survival and differentiation of adult neuronal progenitor cells transplanted to the adult brain. Proc Natl Acad Sci USA 92:11879-11883. Cells and tissue fragments were washed 3 times with Dulbecco's Modified Eagles Medium (DMEM) containing 10% […] bovine serum (defined FBS, Hyclone). Whole digested tissue was then suspended in DMEM 10% FBS, filtered through a sterile 107 μm nylon mesh and thoroughly mixed with an equal volume of PERCOLL™ (polyvinylpyrrolidone-coated silica colloids) solution. The PERCOLL™ (polyvinylpyrrolidone-coated silica colloids) solution was made by mixing 9 parts of PERCOLL™ (polyvinylpyrrolidone-coated silica colloids) (Pharmacia) with 1 part 10X phosphate buffered saline (PBS, Irvine Scientific). The cell suspension was then fractionated by centrifugation for 30 minute, 18°C., at 20,000×g. […]
To determine how rapidly cortical cells acquired the competence to differentiate into neurons in culture, cells were isolated and cultured in growth medium for various times, allowed to differentiate in differentiation medium and then evaluated for the presence of neurons. […] Cultures were also treated with BrdU for the first 10 days and the newly generated neurons were evaluated for evidence of cell division. All neurons scored were labeled (>99%).

Row | Molecule | p21 mRNA (clonal stem cells (AP14); RA treatment, peaked after roughly 5 days) | trkA mRNA (clonal stem cells (AP14); following RA treatment) | trkB mRNA (clonal stem cells (AP14); following RA treatment) | trkC mRNA (clonal stem cells (AP14); following RA treatment) | p75NGFR mRNA (clonal stem cells (AP14); following RA treatment, 7-day time course) | expression of NeuroD mRNA (clonal stem cells (AP14); within 24 hrs of FGF-2 withdrawal and RA treatment, 6 days) | newly generated neurons labeled with BrdU ([1]; BrdU for the first 10 days) [%] | neurons observed in cortical cultures ([1]; after three days in FGF-2) | cells that formed neurons when induced to differentiate ([1]; by 4 weeks in FGF-2 growth medium, 3 passages)
1 | CC1=C(/C=C/C(C)=C/C=C/C(C)=C/C(=O)O)C(C)(C)CCC1 [RA, all-trans retinoic acid] | significant yet gradual increase | increased gradually and reached a plateau after 5 days | increased gradually and reached a plateau after 5 days | increased gradually and reached a plateau after 5 days | dramatically increased | increased and remained elevated | – | – | –
2 | FGF-2: basic fibroblast growth factor, human recombinant, prepared in E. coli | – | – | – | – | – | – | > 99 | the occasional neuron was observed | roughly 10%
